In patent publication US9896445B2, “Heterocyclic inhibitors of ERK1 and ERK2 and their use in the treatment of cancer” (Asana Biosciences, LLC, priority 2015, dated 2018):
Where two headings read alike, the source gives them in different places. Blank lines part the entries; values can stand above or below the compound they belong to.

How the values were obtained:
phospho-RSK1(S380) = assay: Phospho-RSK1(S380) ELISA assay in HT-29 cells; type: cell-based, human; conditions: read-out: Mechanist Cell Assay RSK1 Phos HT29 IC50
Method: Phospho-RSK1(S380) ELISA Assay
HT-29 cells (colorectal carcinoma, B-RafV600E); obtained from ATCC, USA) were seeded (60,000 cells/well) in a 96-well plate and incubated at 37° C./5% CO2 overnight and then treated with desired compound dilutions for 2 h. Medium was removed and cells were rinsed once with ice-cold 1×PBS, then 0.070 mL ice-cold 1× cell lysis buffer containing 1 mM PMSF was added to each well and the plate was incubated on a shaker for 2 h and 30 min at 4° C. The plate was then centrifuged for 20 min (×4000 rpm) at 4° C. and the supernatant was transferred to a new plate. Cell lysates were diluted with sample diluent at a ratio of 1:1. The ELISA was then carried out following the manufacturer's protocol (PathScan® phospho-RSK1(Ser380) Sandwich ELISA Kit, Cell Signaling Technologies). The plate was read at 450 nm within 30 min after adding STOP solution. The IC50 values were subsequently determined using a sigmoidal dose-response curve (variable slope) in GraphPad Prism® 5 software.

[1] = system: HT-29 (colorectal carcinoma, B-RafV600E) cells; assay: Cell proliferation (Alamar Blue) assay, HT-29; type: cell-based, human; conditions: HT29 cells
Method: (§1) Cell Proliferation (Alamar Blue) Assay
(§2) HT-29 (colorectal carcinoma, B-RafV600E), HCT116 (colorectal carcinoma, K Ras G13D), A375 (melanoma, B-RafV600E) and SK-Mel2 (melanoma, NRAS Q61R) cells (obtained from ATCC, USA) were seeded (5000 cells/well) in 96-well tissue culture plate and incubated at 37° C./5% CO2 for 16-24 hours. The cells were then treated with compounds, at concentrations typically from 0.0005 to 10 uM prepared in 3-fold serial dilutions. The plates were then incubated for 72 h at 37° C./5% CO2 in a moist environment. Then Alamar Blue™ reagent (final concentration 1×) was added to each well and incubated for 1-3 h at 37° C./5% CO2. The plates were read on fluorescence reader at 540 nm excitation and 590 nm emission wavelengths. The IC50 values were subsequently determined using a sigmoidal dose-response curve (variable slope) using GraphPad Prism® 5 software.

[2] = system: HCT116 (colorectal carcinoma, K Ras G13D) cells; assay: Cell proliferation (Alamar Blue) assay, HCT116; type: cell-based, human
Method: as §1, §2

ERK1 = molecular target: T1, ERK1 (Homo sapiens, UniProt P27361); assay: ERK1 HTRF (biochemical) assay; conditions: HTRF
T1 construct: purchased Jubilant Biosys
T1 sequence (P27361 whole entry): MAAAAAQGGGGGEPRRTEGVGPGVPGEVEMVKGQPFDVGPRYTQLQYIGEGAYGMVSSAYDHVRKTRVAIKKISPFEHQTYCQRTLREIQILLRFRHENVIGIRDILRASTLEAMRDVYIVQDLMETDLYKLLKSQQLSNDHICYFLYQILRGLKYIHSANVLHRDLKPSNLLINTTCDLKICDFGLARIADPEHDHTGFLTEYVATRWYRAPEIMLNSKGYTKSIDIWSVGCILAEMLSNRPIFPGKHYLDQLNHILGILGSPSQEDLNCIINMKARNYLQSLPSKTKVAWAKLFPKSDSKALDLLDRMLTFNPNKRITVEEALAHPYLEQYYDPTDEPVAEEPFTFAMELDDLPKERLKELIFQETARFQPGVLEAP
Method: ERK1 and ERK2 HTRF (Biochemical) Assays
These assays employed a homogeneous time resolved fluorescence (HTRF) technique. […] The plate was incubated at room temperature for 60 min with shaking. […] The IC50 values (half maximal inhibitory concentration values) were subsequently determined using a sigmoidal dose-response curve (variable slope) in GraphPad Prism® 5 software.

[3] = system: human colon cancer xenograft model (HCT116; harboring KRAS mutation); assay: HCT116 human colon cancer xenograft model, tumor growth inhibition; type: in vivo, mice; conditions: 50 mg/kg BID orally for 24 days
Method: (§3) In Vivo Studies in Tumor Xenograft Models
(§4) Tumor Cell Implantation and Randomization of Animals
(§5) Foxn1 nu/nu strain of female mice (obtained from Charles River Laboratories, USA), 8-10 weeks of age, body weight range 23-25 g, were used for the tumor xenograft efficacy studies. Human cancer cell lines (such as melanoma A375, colorectal HT29, pancreatic BxPC3, colorectal HCT116, and lung A549) were first grown in vitro, and then about five million (5×10^6) of these cells in 100 μL of serum free medium were mixed with an equal amount of matrigel, and the entire mixture was injected subcutaneously at the right flank region of mice. The tumors were measured with Vernier calipers periodically after the first week of injection. […]
(§6) For PO dosing, the compounds were prepared in a formulation containing 0.5% Methyl cellulose and 0.01% Tween 80. […] Tumors size and body weights were measured twice or thrice in a week. […]
(§7) Changes in tumor volume (Δ volumes) for each treated (T) and control (C) group were calculated by subtracting the mean tumor volume on the first day of treatment (starting day) from the mean tumor volume on the specified observation day. […]
(§8) Percentage tumor growth inhibition was calculated as [100−% T/C]. Percentage body weight change was calculated as [(Body weight on specified observation day−Body weight on starting day)/Body weight on starting day]×100.

[4] = system: human melanoma xenograft model (A375) harboring B-RAF V600E mutation; assay: A375 human melanoma xenograft model, tumor growth inhibition; type: in vivo, mice
Method: as §3, §4
(§9) Foxn1 nu/nu strain of female mice (obtained from Charles River Laboratories, USA), 8-10 weeks of age, body weight range 23-25 g, were used for the tumor xenograft efficacy studies. Human cancer cell lines (such as melanoma A375, colorectal HT29, pancreatic BxPC3, colorectal HCT116, and lung A549) were first grown in vitro, and then about five million (5×10^6) of these cells in 100 μL of serum free medium were mixed with an equal amount of matrigel, and the entire mixture was injected subcutaneously at the right flank region of mice. The tumors were measured with Vernier calipers periodically after the first week of injection. When the tumor volume reached 120-150 mm^3 (about 3-4 weeks after injection) the animals were randomized into different groups so that their tumor volume was approximately the same in all groups.
(§10) Determination of In Vivo Efficacy of Tumor Growth Inhibition
(§11) For PO dosing, the compounds were prepared in a formulation containing 0.5% Methyl cellulose and 0.01% Tween 80. For IV, SC, or IP dosing, the compounds were prepared in 6% solutol-ethanol (1:1), 6% DMSO and 88% saline. Animals were dosed with compounds prepared in specific formulations via PO, IP or SC route either QD or BID at the required doses. Tumors size and body weights were measured twice or thrice in a week. Tumors were harvested at the end of the study after euthanizing the animals according to approved protocols. […]
as §7, §8

ERK2 = molecular target: T2, ERK2 (Homo sapiens, UniProt P28482); assay: ERK2 HTRF (biochemical) assay; conditions: HTRF
T2 construct: purchased Jubilant Biosys
T2 sequence (P28482 whole entry): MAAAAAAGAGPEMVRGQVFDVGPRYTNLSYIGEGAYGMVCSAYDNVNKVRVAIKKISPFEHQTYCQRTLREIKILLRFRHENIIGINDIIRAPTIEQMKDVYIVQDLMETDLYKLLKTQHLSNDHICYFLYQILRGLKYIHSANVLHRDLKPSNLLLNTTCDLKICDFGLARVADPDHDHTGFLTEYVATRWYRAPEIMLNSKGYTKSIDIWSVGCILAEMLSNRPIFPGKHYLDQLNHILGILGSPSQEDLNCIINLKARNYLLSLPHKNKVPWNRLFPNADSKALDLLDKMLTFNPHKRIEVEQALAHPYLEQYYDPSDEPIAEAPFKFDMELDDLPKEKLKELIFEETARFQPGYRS
How it was run: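 Compounds were tested as half-log dilutions from 0.0005 to 10 uM in Tris pH 7.5/MgCl2 buffer, with a substrate mix of 1 uM biotin-MBP peptide and 24 uM ATP and an enzyme mix of 25 nM ERK2. Reaction ran 60 min at room temperature. Phospho-MBP was detected by HTRF (Eu-anti-phospho-MBP/SA-APC, 665/620 nm), and IC50 was fitted with a variable-slope sigmoidal curve.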

[5] = system: human lung carcinoma xenograft model (A549; harboring KRAS mutation); assay: A549 human lung carcinoma xenograft model, tumor growth inhibition; type: in vivo, mice; conditions: 50 mg/kg BID orally for 20 days
Method: as §3, §4, §9, §10, §11, §7, §8

[6] = system: phospho-RSK (the downstream target of ERK1/2); assay: Pharmacodynamic assay, phospho-RSK in A375 tumor samples; type: in vivo, mice; conditions: A375 tumor samples harvested at 1 h after dosing at 50 mg/kg PO, compared to vehicle control
Method: as §9, §11

[7] = system: human pancreatic carcinoma xenograft model, BxPC3 (wild type KRAS); assay: BxPC3 human pancreatic carcinoma xenograft model, tumor growth inhibition; type: in vivo, mice
Method: as §3, §4, §5, §6, §7, §8

[8] = system: human colon cancer xenograft model (HT-29) harboring B-RAF V600E mutation; assay: HT-29 human colon cancer xenograft model, tumor growth inhibition; type: in vivo, mice; conditions: HT-29 xenograft
Method: as §3, §4, §5, §6, §7, §8

[9] = 50 mg/kg BID orally for 19 days
[10] = Homo sapiens, HCT-116, HCT116 cells

Structure (SMILES): Cc1cnc(NC2CCOCC2)nc1-n1cnc(C(=O)NC(CN)c2cc(F)cc(Cl)c2)c1 (stereo not shown) [Compound 236, N-(2-amino-1-(3-chloro-5-fluoro-phenyl)ethyl)-1-(5-methyl-2-((tetrahydro-2H-pyran-4-yl)amino)-pyrimidin-4-yl)-1H-imidazole-4-carboxamide]
- IC50 (phospho-RSK1(S380); HT29 cells): ≤ 0.1 µM
- IC50 [1]: ≤ 0.1 µM
- IC50 ([2]; HCT116 cells): ≤ 0.1 µM

Structure (SMILES): Cc1cnc(NC2CCOCC2)nc1-n1cnc(C(=O)N[C@H](CN)c2cccc(Cl)c2)c1 (single isomer, unassigned) [Compound 225a]
- IC50 (ERK1): < 0.05 µM
- body weight loss [3]: no significant body weight loss
- body weight loss [4, 9]: no significant body weight loss
- IC50 (ERK2): ≤ 0.05 µM

Structure (SMILES): Cc1cnc(NC2CC(F)(F)C2)nc1-n1cnc(C(=O)N[C@H](CN)c2cccc(Cl)c2)c1.O=S(=O)(O)c1ccccc1 [Example 304, (S)-N-(2-amino-1-(3-chlorophenyl)-ethyl)-1-(2-((3,3-difluorocyclobutyl)amino)-5-methyl-pyrimidin-4-yl)-1H-imidazole-4-carboxamide benzenesulfonic acid salt]
- body weight loss [5]: no significant body weight loss

Structure (SMILES): Cc1cnc(NC2CCOCC2)nc1-n1cnc(C(=O)N[C@H](CN)c2cc(F)cc(Cl)c2)c1.O=S(=O)(O)c1ccccc1 [Example 302, (S)-N-(2-amino-1-(3-chloro-5-fluoro-phenyl)ethyl)-1-(5-methyl-2-((tetrahydro-2H-pyran-4-yl)amino)-pyrimidin-4-yl)-1H-imidazole-4-carboxamide benzenesulfonic acid salt]
- body weight loss [5]: no significant body weight loss

- melting point: 145 °C
- IC50 (ERK1): < 0.05 µM
- IC50 (ERK2): ≤ 0.05 µM
Structure (SMILES): Cc1cnc(NC2CCOCC2)nc1-n1cnc(C(=O)N[C@H](CO)c2cccc(Cl)c2)c1 [Compound 211, (S)-N-(1-(3-chlorophenyl)-2-hydroxyethyl)-1-(5-methyl-2-((tetrahydro-2H-pyran-4-yl)amino)pyrimidin-4-yl)-1H-imidazole-4-carboxamide]
- inhibition of phospho-RSK [6]: ~84%
- body weight loss ([4]; 50 mg/kg BID orally for 17 days): no significant body weight loss

- IC50 (phospho-RSK1(S380); Homo sapiens, HT-29, HT29 cells): 0.25 to 0.5 µM
- IC50 [2, 10]: 0.5 to 2.5 µM
- IC50 (ERK1): < 0.05 µM
- IC50 (ERK2): ≤ 0.05 µM
Structure (SMILES): Cc1cnc(NC2CCOCC2)nc1-n1cnc(C(=O)N[C@]2(c3cccc(Cl)c3)C[C@H](O)C2)c1 [Compound 245, N-((1s,3s)-1-(3-chlorophenyl)-3-hydroxycyclobutyl)-1-(5-methyl-2-((tetrahydro-2H-4-yl)amino)pyrimidin-4-yl)-1H-imidazole-4-carboxamide]

Structure (SMILES): Cc1cnc(NC2CC(F)(F)C2)nc1-n1cnc(C(=O)N[C@H](CN)c2cccc(Cl)c2)c1 [Example 259, (S)-N-(2-amino-1-(3-chlorophenyl)-ethyl)-1-(2-((3,3-difluorocyclobutyl)amino)-5-methyl-pyrimidin-4-yl)-1H-imidazole-4-carboxamide]
- body weight loss [3]: no significant body weight loss
- body weight loss [4, 9]: no significant body weight loss

- IC50 [2, 10]: > 2.5 µM
- IC50 (ERK1): < 0.05 µM
- IC50 (ERK2): ≤ 0.05 µM
Structure (SMILES): Cc1cnc(Nc2ccc(F)cc2)cc1-n1cnc(C(=O)NC(CN)c2ccccc2)c1 (single isomer, unassigned) [Compound 227, N-(2-amino-1-phenylethyl)-1-(2-((4-fluorophenyl)-amino)-5-methyl-pyridin-4-yl)-1H-imidazole-4-carboxamide]

- IC50 (ERK1): < 0.05 µM
- IC50 (ERK2): ≤ 0.05 µM
Structure (SMILES): Cc1cnc(NC2CCOCC2)nc1-n1cnc(C(=O)NC(CO)c2cccc(Cl)c2)c1 (stereo not shown) [Compound 201, N-(1-(3-chlorophenyl)-2-hydroxyethyl)-1-(5-methyl-2-((tetrahydro-2H-pyran-4-yl)amino)pyrimidin-4-yl)-1H-imidazole-4-carboxamide]
- inhibition of phospho-RSK [6]: about 66%
- body weight loss ([7]; 50 mg/kg BID orally for 25 days): no significant body weight loss
- tumor growth inhibition ([7]; dosed orally at 50 mg/kg BID for 25 days): about 63%
- body weight loss ([8]; 50 mg/kg BID orally for 20 days): no significant body weight loss
- tumor growth inhibition ([8]; dosed orally at 50 mg/kg BID for 20 days): approximately 50%

Structure (SMILES): Cc1cnc(NC2CCOCC2)nc1-n1cnc(C(=O)N[C@H](CN)c2cccc(Cl)c2)c1.O=S(=O)(O)c1ccccc1 [Example 300, (S)-N-(2-amino-1-(3-chlorophenyl)-ethyl)-1-(5-methyl-2-((tetrahydro-2H-pyran-4-yl)amino)-pyrimidin-4-yl)-1H-imidazole-4-carboxamide benzenesulfonic acid salt]
- body weight loss [5]: no significant body weight loss
